Ten molecules from ChEMBL document CHEMBL4177603 (Bioorg Med Chem Lett, 2017) can be followed below.

≈ marks a conversion by molar mass, not a printed value.

The target of data set [1] is T1, Sodium channel protein type 9 subunit alpha (Homo sapiens, UniProt Q15858). Kind of data set: Inhibition of human Nav1.7 expressed in HEK cells by automated patchXpress electrophysiology method. The format is cell-based.
In data set [2] the target is Sodium channel protein type 5 subunit alpha (Homo sapiens, UniProt Q14524). Kind of data set: Inhibition of human Nav1.5 expressed in HEK cells by automated patchXpress electrophysiology method. The format is ADME, cell-based.
Chain of Sodium channel protein type 5 subunit alpha (Q14524 whole entry): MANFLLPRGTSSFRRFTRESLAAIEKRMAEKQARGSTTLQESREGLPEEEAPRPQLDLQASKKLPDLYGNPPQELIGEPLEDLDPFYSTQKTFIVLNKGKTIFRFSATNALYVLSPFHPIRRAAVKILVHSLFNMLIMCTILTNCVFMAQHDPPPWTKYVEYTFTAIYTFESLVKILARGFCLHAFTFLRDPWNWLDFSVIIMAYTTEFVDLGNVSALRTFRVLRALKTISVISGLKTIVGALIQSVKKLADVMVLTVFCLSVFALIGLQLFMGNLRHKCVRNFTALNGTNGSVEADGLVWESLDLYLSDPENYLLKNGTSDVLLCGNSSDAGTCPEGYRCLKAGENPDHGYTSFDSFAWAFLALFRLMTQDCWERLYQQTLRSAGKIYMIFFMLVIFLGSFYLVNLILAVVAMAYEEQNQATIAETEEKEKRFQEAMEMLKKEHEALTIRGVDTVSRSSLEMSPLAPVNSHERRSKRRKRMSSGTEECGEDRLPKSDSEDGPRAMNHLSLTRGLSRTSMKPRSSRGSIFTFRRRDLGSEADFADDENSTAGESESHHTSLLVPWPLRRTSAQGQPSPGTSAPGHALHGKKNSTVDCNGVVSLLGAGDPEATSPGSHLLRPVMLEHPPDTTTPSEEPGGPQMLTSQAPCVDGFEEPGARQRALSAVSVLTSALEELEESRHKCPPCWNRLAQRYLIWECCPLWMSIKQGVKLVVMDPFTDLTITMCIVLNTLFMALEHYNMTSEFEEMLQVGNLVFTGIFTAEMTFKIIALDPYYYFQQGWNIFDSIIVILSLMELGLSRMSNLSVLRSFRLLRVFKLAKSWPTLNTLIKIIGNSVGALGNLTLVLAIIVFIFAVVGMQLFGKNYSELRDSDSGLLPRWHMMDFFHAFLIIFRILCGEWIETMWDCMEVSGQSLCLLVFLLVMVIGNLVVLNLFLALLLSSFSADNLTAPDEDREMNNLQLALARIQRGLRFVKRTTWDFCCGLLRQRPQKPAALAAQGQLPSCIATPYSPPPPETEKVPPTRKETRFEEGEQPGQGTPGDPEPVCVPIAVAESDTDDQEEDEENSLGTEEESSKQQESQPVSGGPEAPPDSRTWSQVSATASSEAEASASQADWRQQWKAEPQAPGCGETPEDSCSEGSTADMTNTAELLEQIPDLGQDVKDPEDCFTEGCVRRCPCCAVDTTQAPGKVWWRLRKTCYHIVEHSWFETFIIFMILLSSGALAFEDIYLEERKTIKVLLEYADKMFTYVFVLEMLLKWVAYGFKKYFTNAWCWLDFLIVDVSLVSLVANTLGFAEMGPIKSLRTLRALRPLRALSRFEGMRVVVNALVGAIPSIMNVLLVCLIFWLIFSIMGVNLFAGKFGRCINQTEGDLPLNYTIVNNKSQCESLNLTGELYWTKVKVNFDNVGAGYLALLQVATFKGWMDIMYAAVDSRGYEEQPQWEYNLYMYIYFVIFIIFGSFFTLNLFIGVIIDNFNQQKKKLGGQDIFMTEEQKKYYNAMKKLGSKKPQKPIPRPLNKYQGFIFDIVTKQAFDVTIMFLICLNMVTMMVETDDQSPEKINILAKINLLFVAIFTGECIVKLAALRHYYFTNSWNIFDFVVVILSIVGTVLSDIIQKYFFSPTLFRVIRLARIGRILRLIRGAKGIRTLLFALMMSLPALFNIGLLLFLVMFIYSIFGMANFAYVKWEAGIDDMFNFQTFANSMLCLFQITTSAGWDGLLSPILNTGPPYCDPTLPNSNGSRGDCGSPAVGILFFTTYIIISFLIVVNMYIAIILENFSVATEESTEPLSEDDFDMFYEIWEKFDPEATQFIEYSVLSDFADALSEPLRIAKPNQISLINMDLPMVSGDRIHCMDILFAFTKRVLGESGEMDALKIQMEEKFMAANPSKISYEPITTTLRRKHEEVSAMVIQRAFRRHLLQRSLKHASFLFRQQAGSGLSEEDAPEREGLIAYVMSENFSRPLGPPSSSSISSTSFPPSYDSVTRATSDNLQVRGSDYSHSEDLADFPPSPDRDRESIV
Data set [3] addresses T1, Sodium channel protein type 9 subunit alpha. Kind of data set: Inhibition of human Nav1.7 expressed in HEK cells by patch clamp electrophysiology method. The format is cell-based. In general terms: In patch-clamp work, channel activity is measured electrically.
Data set [4] is described as follows: Solubility of the compound in aqueous buffer at pH 3. The data set is classed as physicochemical.
Data set [5] in a line: Solubility of the compound in aqueous buffer at pH 4.2. The format is physicochemical.
Data set [6] can be described thus: Solubility of the compound in aqueous buffer at pH 7.2. The data set is classed as physicochemical.
Data set [7] can be described thus: Solubility of the compound in aqueous buffer at pH 5.1. The format is physicochemical.

In general, IC50 refers to the midpoint of a concentration-inhibition curve. A lower IC50 goes with inhibition by little substance. In general, solubility refers to how much of the substance goes into solution per volume. Lower therefore signals a poorly soluble substance.

T1 sequence (Q15858 whole entry): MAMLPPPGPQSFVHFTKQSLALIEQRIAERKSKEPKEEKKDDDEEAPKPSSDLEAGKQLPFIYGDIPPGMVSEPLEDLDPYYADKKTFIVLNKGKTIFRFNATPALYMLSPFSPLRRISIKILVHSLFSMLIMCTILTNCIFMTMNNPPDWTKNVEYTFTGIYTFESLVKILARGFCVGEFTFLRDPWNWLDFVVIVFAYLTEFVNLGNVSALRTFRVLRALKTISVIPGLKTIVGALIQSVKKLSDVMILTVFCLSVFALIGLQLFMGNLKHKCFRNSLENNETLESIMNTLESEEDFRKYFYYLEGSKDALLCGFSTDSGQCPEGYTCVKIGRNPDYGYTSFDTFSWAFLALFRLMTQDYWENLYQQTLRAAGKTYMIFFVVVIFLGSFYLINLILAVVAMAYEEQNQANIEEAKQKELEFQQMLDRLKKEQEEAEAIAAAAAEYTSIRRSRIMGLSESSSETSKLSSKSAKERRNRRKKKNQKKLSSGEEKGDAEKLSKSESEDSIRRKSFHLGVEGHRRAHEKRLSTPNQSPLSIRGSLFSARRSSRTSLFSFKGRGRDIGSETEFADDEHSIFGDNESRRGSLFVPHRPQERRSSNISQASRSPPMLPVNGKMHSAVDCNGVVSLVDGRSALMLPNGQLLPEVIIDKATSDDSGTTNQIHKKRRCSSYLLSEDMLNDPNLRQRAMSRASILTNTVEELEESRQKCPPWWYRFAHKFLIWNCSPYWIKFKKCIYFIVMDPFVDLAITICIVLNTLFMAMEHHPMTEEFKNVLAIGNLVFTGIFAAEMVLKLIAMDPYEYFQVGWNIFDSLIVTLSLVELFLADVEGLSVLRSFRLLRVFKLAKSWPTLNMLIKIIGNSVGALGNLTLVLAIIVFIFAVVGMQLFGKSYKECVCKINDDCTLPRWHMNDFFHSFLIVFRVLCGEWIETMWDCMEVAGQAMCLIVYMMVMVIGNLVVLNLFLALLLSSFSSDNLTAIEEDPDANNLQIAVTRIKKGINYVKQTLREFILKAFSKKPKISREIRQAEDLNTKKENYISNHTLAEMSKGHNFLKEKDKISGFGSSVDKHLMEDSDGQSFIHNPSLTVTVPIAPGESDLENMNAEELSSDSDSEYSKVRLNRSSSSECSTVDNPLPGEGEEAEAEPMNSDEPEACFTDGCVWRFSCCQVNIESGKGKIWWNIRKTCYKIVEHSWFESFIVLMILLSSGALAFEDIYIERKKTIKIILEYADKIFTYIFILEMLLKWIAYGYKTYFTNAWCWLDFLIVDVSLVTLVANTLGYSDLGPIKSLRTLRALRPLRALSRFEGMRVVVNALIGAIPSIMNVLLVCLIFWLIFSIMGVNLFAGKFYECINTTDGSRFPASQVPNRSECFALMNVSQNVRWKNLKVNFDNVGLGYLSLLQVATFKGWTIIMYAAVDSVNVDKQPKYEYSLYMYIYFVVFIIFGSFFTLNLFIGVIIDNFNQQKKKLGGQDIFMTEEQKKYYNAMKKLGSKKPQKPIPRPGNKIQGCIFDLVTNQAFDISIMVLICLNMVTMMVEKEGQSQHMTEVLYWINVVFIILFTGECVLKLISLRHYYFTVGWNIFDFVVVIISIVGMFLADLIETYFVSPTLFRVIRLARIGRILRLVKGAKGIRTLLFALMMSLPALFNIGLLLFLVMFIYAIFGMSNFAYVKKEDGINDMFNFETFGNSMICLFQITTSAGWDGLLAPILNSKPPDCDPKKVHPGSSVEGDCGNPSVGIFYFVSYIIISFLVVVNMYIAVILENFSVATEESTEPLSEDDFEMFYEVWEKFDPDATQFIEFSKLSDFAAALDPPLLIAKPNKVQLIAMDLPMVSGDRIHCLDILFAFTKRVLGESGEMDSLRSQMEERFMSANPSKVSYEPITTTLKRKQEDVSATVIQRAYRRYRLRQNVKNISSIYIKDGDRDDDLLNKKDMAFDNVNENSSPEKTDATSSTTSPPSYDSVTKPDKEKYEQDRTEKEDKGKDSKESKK

On to `O=S(=O)(Nc1nncs1)c1cc(Cl)c(Oc2ccc(Cl)cc2-c2ccnc(CN3CCC3)c2)cc1F`, for which it took 4.8 nM to reach half-maximal inhibition in data set [1] (IC50). This lies in the single-digit nanomolar range.

Take `COCCOCCOCCOCCOCCOCCOCCOCCOCCOCCOCCOCCC(=O)N1CCC(CCNCc2cc(-c3cc(-c4cccc(C(F)(F)F)c4)ccc3Oc3ccc(S(=O)(=O)Nc4ncns4)cc3C#N)ccn2)CC1`: the figures for the IC50 in data set [2] and in data set [1] were greater than 3000 nM and less than 10 nM, respectively.

In data set [3], `N#Cc1cc(S(=O)(=O)Nc2ncns2)ccc1Oc1ccc(-c2cccc(C(F)(F)F)c2)cc1-c1ccnc(CN)c1` came in with an IC50 of 0.1 nM.

In data set [3], `C#CCCOc1ccc(C(=O)c2ccc(CCC(=O)N3CCC(CCNCc4cc(-c5cc(-c6cccc(C(F)(F)F)c6)ccc5Oc5ccc(S(=O)(=O)Nc6ncns6)cc5C#N)ccn4)CC3)cc2)cc1` had an IC50 of 0.1 nM.

In the case of `N#Cc1cc(S(=O)(=O)Nc2ncns2)ccc1Oc1ccc(Cl)cc1-c1cccc(CNCCC2CCNCC2)c1`, it took 0.7 nM to reach half-maximal inhibition in data set [1] (IC50).

In turn, `O=S(=O)(Nc1cscn1)c1cc(Cl)c(Oc2ccc(Cl)cc2-c2ccnc(CN3CCC3)c2)cc1F` yielded an IC50 in data set [1] of 13.2 nM.

Turning to `Cc1cc(C)n2c1C=C1C=CC(CCCCC(=O)NCCOCCOCCC(=O)N3CCC(CCNCc4cc(-c5cc(-c6cccc(C(F)(F)F)c6)ccc5Oc5ccc(S(=O)(=O)Nc6ncns6)cc5C#N)ccn4)CC3)=[N+]1[B-]2(F)F`, in data set [3], the IC50 was 0.12 nM.

Regarding `N#Cc1cc(S(=O)(=O)Nc2ncns2)ccc1Oc1ccc(Cl)cc1-c1cccc(CN)c1`, the IC50 in data set [1] was found to be 8.5 nM.

In the case of `CC(=O)N1CCC(CCNCc2cc(-c3cc(-c4cccc(C(F)(F)F)c4)ccc3Oc3ccc(S(=O)(=O)Nc4ncns4)cc3C#N)ccn2)CC1`, the IC50 in data set [1] was less than 4 nM.

On to `NCc1cc(-c2cc(-c3cccc(C(F)(F)F)c3)ccc2Oc2cc(F)c(S(=O)(=O)Nc3nncs3)cc2Cl)ccn1`, for which the solubility in data set [4] was 6 µg/mL (≈ 9.43 µM); in data set [5], less than 0.5 µg/mL; in data set [6], less than 0.5 µg/mL; in data set [7], less than 0.5 µg/mL.
